Molecules are shown by their SMILES. pKi: −log10 of the molar value.

The test system of assay [1] is ec308 (SHV-5). The assay can be described thus: Aztreonam potentiation (MPC@4), strain ec308. The conditions noted are these: read-out: Aztreonam MIC.
Assay [2] deals with ec302 (TEM-10). The assay can be described thus: Aztreonam potentiation (MPC@4), strain ec302. The following applies: read-out: Aztreonam MIC.
In assay [3] the test system is KP1005 (CTX-M-14). The assay can be described thus: Aztreonam potentiation (MPC@4), strain KP1005. The following applies: read-out: Aztreonam MIC.
Assay [4] relates to KP1009 (CTX-M-15). The experiment in a line: Aztreonam potentiation (MPC@4), strain KP1009. The following applies: read-out: Aztreonam MIC.
In assay [5] the test system is KP1010 (SHV-12). The experiment in a line: Aztreonam potentiation (MPC@4), strain KP1010. The conditions noted are these: read-out: Aztreonam MIC.
In assay [6] the test system is KP1004 (KPC-2). The assay can be described thus: Aztreonam potentiation (MPC@4), strain KP1004. The conditions noted are these: read-out: Aztreonam MIC.
Assay [7] relates to EC1010 (CMY-6). The experiment in a line: Aztreonam potentiation (MPC@4), strain EC1010. The following applies: read-out: Aztreonam MIC.
Assay [8] has as its system ECL1002. The experiment in a line: Aztreonam potentiation (MPC@4), strain ECL1002. The conditions noted are these: read-out: Aztreonam MIC.
The subject of assay [9] is KP1004 (KPC-2). The assay can be described thus: Biapenem potentiation (MPC@1), strain KP1004. The conditions noted are these: strain KP1004 (KPC-2), biapenem alone. The assay is classed as cell-based. The text has this: (§1) Biapenem was present in the test medium at 1 Dg/mL. […] Table 4 summarizes the BLI potency of biapenem potentiation (MPC@1) for two strains overexpressing class A (KPC) and class D (OXA-48) carbapenemases. Biapenem MIC for each strain is also shown.

The next assay relates to KP1086 (OXA-48). The experiment in a line: Biapenem potentiation (MPC@1), strain KP1086. Format: cell-based. The conditions noted are these: strain KP1086 (OXA-48), biapenem alone.
Text: as §1

The next assay has as its system KP1081 (NDM-1). The experiment in a line: Biapenem potentiation (MPC@1), strain KP1081. Format: cell-based. The following applies: strain KP1081 (NDM-1), biapenem alone.
A further assay has as its system KP1054 (VIM-1). The experiment in a line: Biapenem potentiation (MPC@1), strain KP1054. Format: cell-based. The conditions noted are these: strain KP1054 (VIM-1), biapenem alone.
In assay [10] the test system is PAM1032/KPC-2 (overexpressed MexAB-OprM). The assay can be described thus: Biapenem potentiation (MPC64) in PAM1032/KPC-2. The assay is classed as cell-based, Pseudomonas aeruginosa. Also on record: PAM1032/KPC-2 Biapenem MPC64: unit not given here. The essentials:
(§2)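 KPC-2 plasmid-expressing P. aeruginosa strains were used to measure BLI potentiation of biapenem as MPC64. The PAM1032/KPC-2 to PAM1154/KPC-2 MPC64 ratio gave the Efflux Index.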

Assay [11] deals with PAM1154/KPC-2 (lacked MexAB-OprM). The experiment in a line: Biapenem potentiation (MPC64) in PAM1154/KPC-2. The assay is classed as cell-based, Pseudomonas aeruginosa. Also on record: PAM1154/KPC-2 Biapenem MPC64: unit not given here. The procedure, abridged:
as §2

Another assay has as its target CTX-M-14 (Escherichia coli, UniProt Q9L5C7). The assay can be described thus: Inhibition of nitrocefin cleavage by purified CTX-M-14. The following applies: nitrocefin reporter substrate; 10 min preincubation at room temperature; read-out: Ki (CTX-M-14, NCF). The assay is classed as biochemical. The method, then: (§3) Ki values of inhibition of purified class A, C and D enzymes were determined spectrophotometrically using nitrocefin as reporter substrate. Purified enzymes were mixed with various concentrations of inhibitors in reaction buffer and incubated for 10 min at room temperature. Nitrocefin was added and substrate cleavage profiles were recorded at 490 nm every 10 sec for 10 min.

A further assay deals with SHV-12 (Klebsiella pneumoniae, UniProt P0AD64, E235K/G234S/L31Q). The assay can be described thus: Inhibition of nitrocefin cleavage by purified SHV-12. The assay is classed as biochemical. The following applies: nitrocefin reporter substrate; 10 min preincubation at room temperature; read-out: Ki (SHV-12, NCF). The method, then:
as §3

The target of another assay is KPC-2 (Klebsiella pneumoniae, UniProt Q9F663). The assay can be described thus: Inhibition of nitrocefin cleavage by purified KPC-2. The assay is classed as biochemical. The following applies: nitrocefin reporter substrate; 10 min preincubation at room temperature; read-out: Ki (KPC-2, NCF). The essentials:
(§4)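 Preincubation 10 min RT, purified enzyme with inhibitor series in reaction buffer; reporter nitrocefin; kinetic A490, 10-sec intervals, 10 min; Ki calculated.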

A further assay concerns the target P99 (Enterobacter cloacae, UniProt P05364). The experiment in a line: biochemical. The conditions noted are these: nitrocefin reporter substrate; 10 min preincubation at room temperature; read-out: Ki (P99, NCF). The method, then:
as §3

The target of a further assay is Pa-AmpC (Pseudomonas aeruginosa, UniProt P24735). The experiment in a line: biochemical. The conditions noted are these: nitrocefin reporter substrate; 10 min preincubation at room temperature; read-out: Ki (Pa-AmpC, NCF). The method, then: as §3
Sequence of Pa-AmpC (P24735 27-397): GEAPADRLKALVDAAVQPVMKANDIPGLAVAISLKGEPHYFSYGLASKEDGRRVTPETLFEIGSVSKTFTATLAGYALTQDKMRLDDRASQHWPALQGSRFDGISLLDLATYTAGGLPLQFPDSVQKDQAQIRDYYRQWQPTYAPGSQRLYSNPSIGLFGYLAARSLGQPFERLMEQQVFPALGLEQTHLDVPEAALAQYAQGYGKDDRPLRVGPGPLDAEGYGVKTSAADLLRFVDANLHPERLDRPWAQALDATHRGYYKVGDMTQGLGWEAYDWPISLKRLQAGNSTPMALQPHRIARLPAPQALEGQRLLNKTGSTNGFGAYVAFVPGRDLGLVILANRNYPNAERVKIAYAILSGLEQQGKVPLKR
The next assay has as its target OXA-48 (Klebsiella pneumoniae, UniProt Q6XEC0). The assay can be described thus: Inhibition of nitrocefin cleavage by purified OXA-48. The conditions noted are these: nitrocefin reporter substrate; 10 min preincubation at room temperature; read-out: Ki (OXA-48, NCF). The assay is classed as biochemical. The essentials:
as §4

In the next assay the target is OXA-23 (Acinetobacter baumannii, UniProt Q9L4P2). The assay can be described thus: Inhibition of nitrocefin cleavage by purified OXA-23. The following applies: nitrocefin reporter substrate; 10 min preincubation at room temperature; read-out: Ki (OXA-23, NCF). The assay is classed as biochemical. The essentials:
as §4

Another assay concerns the target VIM-1 (Pseudomonas aeruginosa, UniProt A0A0F7KYQ8). The assay can be described thus: Inhibition of nitrocefin cleavage by purified VIM-1. The assay is classed as biochemical. The conditions noted are these: nitrocefin reporter substrate; 10 min preincubation at room temperature; read-out: Ki (VIM-1, NCF).
The target in a further assay is IMP-1 (Serratia marcescens, UniProt P52699). The experiment in a line: Inhibition of imipenem cleavage by purified IMP-1. Format: biochemical. The conditions noted are these: imipenem reporter substrate; 37° C.; read-out: Ki (IMP-1, IMI). The procedure, abridged: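 Purified enzymes preincubated with varying inhibitor concentrations for 10 min at room temperature, then imipenem added as reporter substrate. Hydrolysis followed spectrophotometrically at 294 nm every 30 s for 30 min at 37° C; Ki values derived.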
Sequence of IMP-1 (P52699 19-246, looked up, species assumed): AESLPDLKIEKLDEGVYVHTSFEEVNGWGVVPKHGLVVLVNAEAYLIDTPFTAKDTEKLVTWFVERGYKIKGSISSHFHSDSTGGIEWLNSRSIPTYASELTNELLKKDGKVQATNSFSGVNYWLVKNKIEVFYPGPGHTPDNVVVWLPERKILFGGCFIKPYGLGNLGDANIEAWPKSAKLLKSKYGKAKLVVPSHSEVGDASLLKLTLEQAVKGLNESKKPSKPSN

The next assay concerns AB1053 (OXA-72). The experiment in a line: Meropenem potentiation (MPC@8), strain AB1053. Format: cell-based. The conditions noted are these: Acinetobacter baumannii; strain AB1053 (OXA-72), meropenem alone.
A further assay deals with AB1054 (OXA-23). The assay can be described thus: Meropenem potentiation (MPC@8), strain AB1054. Format: cell-based. The conditions noted are these: Acinetobacter baumannii, read-out: Meropenem MIC.
For assay [12], the system named is ec308 (SHV-5). The assay can be described thus: Tigemonam potentiation (MPC@4), strain ec308. Format: cell-based. The conditions noted are these: strain ec308 (SHV-5), tigemonam alone.
For assay [13], the system named is ec302 (TEM-10). The assay can be described thus: Tigemonam potentiation (MPC@4), strain ec302. The assay is classed as cell-based. The following applies: strain ec302 (TEM-10), tigemonam alone.
Assay [14] deals with ECL1002. The experiment in a line: Tigemonam potentiation (MPC@4), strain ECL1002. The assay is classed as cell-based. The following applies: strain ECL1002, tigemonam alone.
Assay [15] concerns EC1010 (CMY-6). The experiment in a line: Tigemonam potentiation (MPC@4), strain EC1010. Format: cell-based. The following applies: strain EC1010 (CMY-6), tigemonam alone.
Assay [16] deals with KP1005 (CTX-M-14). The assay can be described thus: Tigemonam potentiation (MPC@4), strain KP1005. The conditions noted are these: strain KP1005 (CTX-M-14), tigemonam alone.
Assay [17] concerns KP1009 (CTX-M-15). The experiment in a line: Tigemonam potentiation (MPC@4), strain KP1009. The conditions noted are these: strain KP1009 (CTX-M-15), tigemonam alone.
The test system of assay [18] is KP1010 (SHV-12). The assay can be described thus: Tigemonam potentiation (MPC@4), strain KP1010. The following applies: strain KP1010 (SHV-12), tigemonam alone.

Sequence of OXA-23 (Q9L4P2 18-273): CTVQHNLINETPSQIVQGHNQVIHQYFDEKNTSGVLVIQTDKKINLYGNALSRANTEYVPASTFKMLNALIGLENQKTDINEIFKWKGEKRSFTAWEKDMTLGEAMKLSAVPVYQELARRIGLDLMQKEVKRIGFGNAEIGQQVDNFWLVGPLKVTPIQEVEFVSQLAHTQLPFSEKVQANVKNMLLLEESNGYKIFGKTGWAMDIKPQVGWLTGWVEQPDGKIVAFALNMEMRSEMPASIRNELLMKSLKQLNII
Sequence of SHV-12 (P0AD64 22-286 L31Q/G234S/E235K): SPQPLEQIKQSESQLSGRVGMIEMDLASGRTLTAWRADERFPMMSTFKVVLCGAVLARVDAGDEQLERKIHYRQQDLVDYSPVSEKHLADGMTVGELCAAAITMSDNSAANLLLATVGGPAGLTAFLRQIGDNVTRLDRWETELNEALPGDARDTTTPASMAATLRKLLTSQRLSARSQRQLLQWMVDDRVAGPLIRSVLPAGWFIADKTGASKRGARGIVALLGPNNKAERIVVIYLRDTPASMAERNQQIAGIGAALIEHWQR
Sequence of P99 (P05364 21-381): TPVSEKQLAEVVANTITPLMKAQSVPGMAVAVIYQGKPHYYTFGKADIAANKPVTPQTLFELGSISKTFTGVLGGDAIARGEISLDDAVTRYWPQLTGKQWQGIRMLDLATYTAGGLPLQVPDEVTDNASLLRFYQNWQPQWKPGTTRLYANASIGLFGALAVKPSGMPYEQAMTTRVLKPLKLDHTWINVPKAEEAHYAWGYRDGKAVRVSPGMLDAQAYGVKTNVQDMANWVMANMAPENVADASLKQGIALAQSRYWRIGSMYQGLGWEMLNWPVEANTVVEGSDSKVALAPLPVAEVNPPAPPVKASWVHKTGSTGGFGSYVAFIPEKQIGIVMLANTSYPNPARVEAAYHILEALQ
Sequence of OXA-48 (Q6XEC0 23-265, looked up): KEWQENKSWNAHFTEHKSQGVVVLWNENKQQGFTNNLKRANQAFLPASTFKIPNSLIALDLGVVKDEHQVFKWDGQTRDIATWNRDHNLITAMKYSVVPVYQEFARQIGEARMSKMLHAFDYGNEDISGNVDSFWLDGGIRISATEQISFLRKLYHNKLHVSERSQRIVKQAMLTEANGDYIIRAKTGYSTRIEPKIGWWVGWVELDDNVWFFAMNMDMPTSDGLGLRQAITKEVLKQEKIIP
Sequence of KPC-2 (Q9F663 25-293 limits assumed): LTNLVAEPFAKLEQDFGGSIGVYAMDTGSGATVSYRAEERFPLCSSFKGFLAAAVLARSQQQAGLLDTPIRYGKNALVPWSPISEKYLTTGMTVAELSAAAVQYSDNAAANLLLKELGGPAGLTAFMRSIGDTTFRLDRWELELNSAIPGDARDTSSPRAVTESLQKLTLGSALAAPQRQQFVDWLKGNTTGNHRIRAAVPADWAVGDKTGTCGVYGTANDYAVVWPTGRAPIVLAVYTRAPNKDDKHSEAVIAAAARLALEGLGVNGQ
Sequence of CTX-M-14 (Q9L5C7 29-291, species assumed): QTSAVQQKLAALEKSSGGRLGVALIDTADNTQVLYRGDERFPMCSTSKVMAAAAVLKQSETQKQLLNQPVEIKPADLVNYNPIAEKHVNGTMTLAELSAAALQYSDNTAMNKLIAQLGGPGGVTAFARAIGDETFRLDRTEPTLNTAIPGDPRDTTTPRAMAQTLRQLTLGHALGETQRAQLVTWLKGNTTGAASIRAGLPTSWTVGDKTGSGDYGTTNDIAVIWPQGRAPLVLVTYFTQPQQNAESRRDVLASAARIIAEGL

The term MIC denotes the least concentration at which growth counts as inhibited. Turning to `C[C@H]1[C@H](NC(=O)/C(=N\OC(C)(C)C(=O)O)c2csc(N)n2)C(=O)N1S(=O)(=O)O` [Aztreonam], the minimal inhibitory concentration (MIC) with ec308 (SHV-5) [1] was > 128 µg/mL; in the assay with ec302 (TEM-10) [2], 128 µg/mL; in the assay with KP1005 (CTX-M-14) [3], > 128 µg/mL; with KP1009 (CTX-M-15) [4], > 128 µg/mL; in the assay on KP1010 (SHV-12) [5] it was 64 µg/mL; in the assay with KP1004 (KPC-2) [6] it was > 128 µg/mL. Also, the minimum inhibitory concentration (MIC) was > 128 µg/mL with EC1010 (CMY-6) [7] and 64 µg/mL in the assay with ECL1002 [8].

For the compound `C[C@@H](O)[C@H]1C(=O)N2C(C(=O)[O-])=C(SC3Cn4cnc[n+]4C3)[C@H](C)[C@H]12` (stereo partly shown) [Biapenem], the MIC in the assay with KP1004 (KPC-2) [9] was 32 µg/mL; with KP1086 (OXA-48), 16 µg/mL; in the assay on KP1081 (NDM-1), 16 µg/mL; in the assay with KP1054 (VIM-1), 16 µg/mL; in assay [10] (Pseudomonas aeruginosa, PAM1032/KPC-2, biapenem alone), 32 µg/mL; in [11] (Pseudomonas aeruginosa, PAM1154/KPC-2, biapenem alone) it was 32 µg/mL.

By pKi is commonly meant −log10 of the Ki, conventionally taken in molar units. For the compound `O=C(O)c1c(F)ccc2c1OB(O)[C@@H]1C[C@H]21` [Compound 13, (1aR,7bS)-5-fluoro-2-hydroxy-1a,7b-dihydro-1H-cyclopropa[c][1,2]benzoxaborinine-4-carboxylic acid], the negative logarithm of the Ki (pKi) on CTX-M-14, on SHV-12, on KPC-2, at P99, on Pa-AmpC and on OXA-48 was > 7.00 throughout. For the same compound, the negative-log Ki (pKi) at OXA-23 is > 7.00; on VIM-1, > 7.00; on IMP-1, 6.00 to 7.00. For the same compound, the “PAM1032/KPC-2 Biapenem MPC64” value in assay [10] (BLI potency to decrease biapenem MIC 64-fold, from 32 to 0.5 μg/ml, efflux proficient strain) stood at 2.5. The “PAM1154/KPC-2 Biapenem MPC64” value in assay [11] (BLI potency to decrease biapenem MIC 64-fold, from 32 to 0.5 μg/ml, efflux deficient strain) came to 2.5.

For `C[C@@H](O)[C@H]1C(=O)N2C(C(=O)O)=C(S[C@@H]3CN[C@H](C(=O)N(C)C)C3)[C@H](C)[C@H]12` [Meropenem], the MIC in the assay with AB1053 (OXA-72) was > 64 µg/mL; in the assay with AB1054 (OXA-23) it was 32 µg/mL.

As for `CC1(C)[C@H](NC(=O)/C(=N\OCC(=O)O)c2csc(N)n2)C(=O)N1OS(=O)(=O)O` [Tigemonam], the “Tigemonam MIC” value is >64 µg/mL in the assay on ec308 (SHV-5) [12]; >64 µg/mL in the assay with ec302 (TEM-10) [13]; 32 µg/mL in the assay on ECL1002 [14]; 16 µg/mL with EC1010 (CMY-6) [15]; >64 µg/mL with KP1005 (CTX-M-14) [16]; >64 µg/mL with KP1009 (CTX-M-15) [17]. Besides, the “Tigemonam MIC” value in the assay with KP1010 (SHV-12) [18] was >64 µg/mL.

These data come from patent publication US11999759B2, “Boronic acid derivatives and therapeutic uses thereof” (Qpex Biopharma, Inc., priority 2016, dated 2024).
